Values of other authors as cited in US10650914B2, “Fresh water acute criteria prediction method based on quantitative structure-activity relationship for metals” (Chinese Research Academy of Environmental Sciences, priority 2015, dated 2020).

What was measured:
Carp = settings: training set
Daphnia magna = settings: for Endpoint Index: fatality rate, 48 hours, 13° C., pH 7.6, total hardness 240 mg/L; for Observed value (log-EC50): training set of leave-one-out internal validation

| Compound | Observed value (log-LC50) (Carp) | Endpoint Index (Daphnia magna) | Observed value (log-EC50) (Daphnia magna) |
| --- | --- | --- | --- |
| [Cr] [Chromium] | 2.439 |  |  |
| [Pb] [Lead] |  | 8.69 | 1.6231 |
| [Ag] [Silver] |  | 0.014 | −0.8873 |
| [Zn] [Zinc] | 2.079 | 0.13 | 0.3010 |
| [Fe] [Iron] |  | 2.92 | 1.7172 |
| [Ni] [Nickel] | 2.246 | 5.7 | 1.9850 |
| [Cd] [Cadmium] | 0.331 |  |  |
| [Cu] [Copper] | 1.097 | 0.014 | −0.6601 |
